In patent US8927500B2, “Peptidomimetic macrocycles” (Aileron Therapeutics, Inc., priority 2012, dated 2015):
Where a SMILES comes first, the peptide text is derived from it. Bridges are numbered along the chain shown (N, C = ends). [ ]: non-standard residue; d: D form. Trp(6-Cl) = N[C@@H](Cc1c[nH]c2cc(Cl)ccc12)C(=O)O; Phe(4-COOH) = N[C@@H](Cc1ccc(C(=O)O)cc1)C(=O)O; Phe(3,4-F2) = N[C@@H](Cc1ccc(F)c(F)c1)C(=O)O; R8 = C=CCCCCCC[C@@](C)(N)C(=O)O; Cba = N[C@@H](CC1CCC1)C(=O)O; S5 = C=CCCC[C@](C)(N)C(=O)O; Nle = CCCC[C@H](N)C(=O)O

Key:
MDM2 = MDM2 (Homo sapiens, UniProt Q00987); assay: Competitive fluorescence polarization assay for MDM2; format: binding; conditions: competitive FP assay, MDM2; for IC50: read-out: IC50 (MDM2); for Ki: read-out: Ki (MDM2)
MDMX = target: T1, MDMX (Homo sapiens, UniProt O15151); assay: Competitive fluorescence polarization assay for MDMX; format: binding; conditions: competitive FP assay; for IC50: read-out: IC50 (MDMX); for Ki: read-out: Ki (MDMX)
T1 sequence (O15151 1-125): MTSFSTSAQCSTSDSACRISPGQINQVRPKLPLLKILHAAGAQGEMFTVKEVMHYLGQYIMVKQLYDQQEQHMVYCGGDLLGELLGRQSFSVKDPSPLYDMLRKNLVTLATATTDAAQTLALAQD

Sequence of MDM2 (Q00987 1-125): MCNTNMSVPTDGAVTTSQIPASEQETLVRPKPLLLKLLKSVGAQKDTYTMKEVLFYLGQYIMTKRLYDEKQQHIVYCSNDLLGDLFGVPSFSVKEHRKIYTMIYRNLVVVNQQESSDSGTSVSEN

SMILES: CC(=O)N[C@@H](CC(C)C)C(=O)N[C@H](C(=O)N[C@@H](Cc1ccccc1)C(=O)N[C@]1(C)CCCCCCC=CCCC[C@@](C)(C(=O)N[C@@H](CO)C(=O)N[C@@H](C)C(=O)N[C@@H](Cc2ccccc2)C(N)=O)NC(=O)[C@H](CC2CCC2)NC(=O)[C@H](CCC(N)=O)NC(=O)[C@H](C)NC(=O)[C@H](Cc2c[nH]c3ccccc23)NC(=O)[C@H](Cc2ccc(O)cc2)NC(=O)[C@H](CCC(=O)O)NC1=O)[C@@H](C)O [compound 256] (Ac-LTF[R8]EYWAQ[Cba][S5]SAF-NH2; staple 4-11)
- IC50 (MDM2): 10 to 100 nM
- Ki (MDM2): < 10 nM
- IC50 (MDMX): 10 to 100 nM
- Ki (MDMX): 10 to 100 nM

SMILES: CC(=O)N[C@@H](CC(C)C)C(=O)N[C@H](C(=O)N[C@@H](Cc1ccccc1)C(=O)N[C@]1(C)CCCCCCC=CCCC[C@@](C)(C(=O)N[C@@H](CO)C(=O)N[C@@H](C)C(=O)N[C@@H](Cc2ccccc2)C(=O)N[C@H](C)C(N)=O)NC(=O)[C@H](CC2CCC2)NC(=O)[C@H](CCC(N)=O)NC(=O)[C@H](C)NC(=O)[C@H](Cc2c[nH]c3ccccc23)NC(=O)[C@H](Cc2ccc(O)cc2)NC(=O)[C@H](CCC(=O)O)NC1=O)[C@@H](C)O [compound 257] (Ac-LTF[R8]EYWAQ[Cba][S5]SAF[dA]-NH2; staple 4-11)
- IC50 (MDM2): 10 to 100 nM
- Ki (MDM2): < 10 nM
- IC50 (MDMX): 10 to 100 nM
- Ki (MDMX): 10 to 100 nM

SMILES: CC(=O)N[C@@H](CC(C)C)C(=O)N[C@H](C(=O)N[C@@H](Cc1ccccc1)C(=O)N[C@]1(C)CCCCCCC=CCCC[C@@](C)(C(=O)N[C@@H](CO)C(=O)N[C@@H](C)C(=O)N[C@@H](Cc2ccccc2)C(N)=O)NC(=O)[C@H](CC2CCC2)NC(=O)[C@H](CCC(N)=O)NC(=O)[C@H](C)NC(=O)[C@H](Cc2c[nH]c3ccccc23)NC(=O)[C@H](Cc2ccc(O)cc2)NC(=O)[C@H](C)NC1=O)[C@@H](C)O [compound 258] (Ac-LTF[R8]AYWAQ[Cba][S5]SAF-NH2; staple 4-11)
- IC50 (MDM2): 10 to 100 nM
- Ki (MDM2): < 10 nM
- IC50 (MDMX): 100 to 1000 nM
- Ki (MDMX): 10 to 100 nM

SMILES: CC(=O)N[C@@H](CC(C)C)C(=O)N[C@H](C(=O)N[C@@H](Cc1ccc(F)c(F)c1)C(=O)N[C@]1(C)CCCCCCC=CCCC[C@@](C)(C(=O)N[C@@H](CO)C(=O)N[C@@H](C)C(=O)N[C@@H](Cc2ccccc2)C(N)=O)NC(=O)[C@H](CC2CCC2)NC(=O)[C@H](CCC(N)=O)NC(=O)[C@H](C)NC(=O)[C@H](Cc2c[nH]c3ccccc23)NC(=O)[C@H](Cc2ccc(O)cc2)NC(=O)[C@H](C)NC1=O)[C@@H](C)O [compound 259] (Ac-LT[Phe(3,4-F2)][R8]AYWAQ[Cba][S5]SAF-NH2; staple 4-11)
- IC50 (MDM2): 10 to 100 nM
- Ki (MDM2): < 10 nM
- IC50 (MDMX): 10 to 100 nM
- Ki (MDMX): 10 to 100 nM

SMILES: CC(=O)N[C@@H](CC(C)C)C(=O)N[C@H](C(=O)N[C@@H](Cc1ccccc1)C(=O)N[C@]1(C)CCCCCCC=CCCC[C@@](C)(C(=O)N[C@@H](CO)C(=O)N[C@@H](C)C(=O)N[C@@H](Cc2ccccc2)C(N)=O)NC(=O)[C@H](CC2CCC2)NC(=O)[C@H](CCC(N)=O)NC(=O)[C@H](C)NC(=O)[C@H](Cc2c[nH]c3ccccc23)NC(=O)[C@H](Cc2ccc(C(=O)O)cc2)NC(=O)[C@H](C)NC1=O)[C@@H](C)O [compound 260] (Ac-LTF[R8]A[Phe(4-COOH)]WAQ[Cba][S5]SAF-NH2; staple 4-11)
- IC50 (MDM2): 10 to 100 nM
- Ki (MDM2): < 10 nM
- IC50 (MDMX): 10 to 100 nM
- Ki (MDMX): 10 to 100 nM

SMILES: CC(=O)N[C@@H](CC(C)C)C(=O)N[C@H](C(=O)N[C@@H](Cc1ccccc1)C(=O)N[C@]1(C)CCCCCCC=CCCC[C@@](C)(C(=O)N[C@@H](CO)C(=O)N[C@@H](C)C(=O)N[C@@H](Cc2ccccc2)C(N)=O)NC(=O)[C@H](CC2CCC2)NC(=O)[C@H](CCC(N)=O)NC(=O)[C@H](C)NC(=O)[C@H](Cc2c[nH]c3cc(Cl)ccc23)NC(=O)[C@H](Cc2ccc(O)cc2)NC(=O)[C@H](CCC(=O)O)NC1=O)[C@@H](C)O [compound 261] (Ac-LTF[R8]EY[Trp(6-Cl)]AQ[Cba][S5]SAF-NH2; staple 4-11)
- IC50 (MDM2): 10 to 100 nM
- Ki (MDM2): < 10 nM
- IC50 (MDMX): 100 to 1000 nM
- Ki (MDMX): 10 to 100 nM

SMILES: CC(=O)N[C@@H](CC(C)C)C(=O)N[C@H](C(=O)N[C@@H](Cc1ccccc1)C(=O)N[C@]1(C)CCCCCCC=CCCC[C@@](C)(C(=O)N[C@@H](CO)C(=O)N[C@@H](C)C(=O)N[C@@H](Cc2ccccc2)C(N)=O)NC(=O)[C@H](CC2CCC2)NC(=O)[C@H](CCC(N)=O)NC(=O)[C@H](CO)NC(=O)[C@H](Cc2c[nH]c3ccccc23)NC(=O)[C@H](Cc2ccc(O)cc2)NC(=O)[C@H](C)NC1=O)[C@@H](C)O [compound 262] (Ac-LTF[R8]AYWSQ[Cba][S5]SAF-NH2; staple 4-11)
- IC50 (MDM2): 10 to 100 nM
- Ki (MDM2): < 10 nM
- IC50 (MDMX): 100 to 1000 nM
- Ki (MDMX): 10 to 100 nM

SMILES: CC(=O)N[C@@H](CC(C)C)C(=O)N[C@H](C(=O)N[C@@H](Cc1ccccc1)C(=O)N[C@]1(C)CCCCCCC=CCCC[C@@](C)(C(=O)N[C@@H](CO)C(=O)N[C@@H](C)C(=O)N[C@@H](Cc2ccccc2)C(N)=O)NC(=O)[C@H](CC2CCC2)NC(=O)[C@H](CCC(N)=O)NC(=O)[C@H](Cc2c[nH]c3ccccc23)NC(=O)[C@H](Cc2c[nH]c3ccccc23)NC(=O)[C@H](Cc2ccc(O)cc2)NC(=O)[C@H](C)NC1=O)[C@@H](C)O [compound 263] (Ac-LTF[R8]AYWWQ[Cba][S5]SAF-NH2; staple 4-11)
- IC50 (MDM2): 10 to 100 nM
- Ki (MDM2): < 10 nM
- IC50 (MDMX): 100 to 1000 nM
- Ki (MDMX): 10 to 100 nM

SMILES: CC[C@H](C)[C@H](NC(=O)[C@H](C)NC(=O)[C@H](C)NC(=O)[C@]1(C)CCCC=CCCCCCC[C@@](C)(NC(=O)[C@H](Cc2ccccc2)NC(=O)[C@@H](NC(=O)[C@H](CC(C)C)NC(C)=O)[C@@H](C)O)C(=O)N[C@@H](C)C(=O)N[C@@H](Cc2ccc(O)cc2)C(=O)N[C@@H](Cc2c[nH]c3ccccc23)C(=O)N[C@@H](C)C(=O)N[C@@H](CCC(N)=O)C(=O)N[C@@H](CC2CCC2)C(=O)N1)C(=O)N[C@H](C)C(N)=O [compound 264] (Ac-LTF[R8]AYWAQ[Cba][S5]AAI[dA]-NH2; staple 4-11)
- IC50 (MDM2): 10 to 100 nM
- Ki (MDM2): < 10 nM
- IC50 (MDMX): 10 to 100 nM
- Ki (MDMX): 10 to 100 nM

SMILES: CC[C@H](C)[C@H](NC(=O)[C@H](C)NC(=O)[C@H](C)NC(=O)[C@]1(C)CCCC=CCCCCCC[C@@](C)(NC(=O)[C@H](Cc2ccccc2)NC(=O)[C@@H](NC(=O)[C@H](CC(C)C)NC(C)=O)[C@@H](C)O)C(=O)N[C@@H](C)C(=O)N[C@@H](Cc2ccc(O)cc2)C(=O)N[C@@H](Cc2c[nH]c3cc(Cl)ccc23)C(=O)N[C@@H](C)C(=O)N[C@@H](CCC(N)=O)C(=O)N[C@@H](CC2CCC2)C(=O)N1)C(=O)N[C@H](C)C(N)=O [compound 266] (Ac-LTF[R8]AY[Trp(6-Cl)]AQ[Cba][S5]AAI[dA]-NH2; staple 4-11)
- IC50 (MDM2): 10 to 100 nM
- Ki (MDM2): < 10 nM
- IC50 (MDMX): 100 to 1000 nM
- Ki (MDMX): 10 to 100 nM

SMILES: CC[C@H](C)[C@H](NC(=O)[C@H](C)NC(=O)[C@H](C)NC(=O)[C@]1(C)CCCC=CCCCCCC[C@@](C)(NC(=O)[C@H](Cc2ccccc2)NC(=O)[C@@H](NC(=O)[C@H](CC(C)C)NC(C)=O)[C@@H](C)O)C(=O)N[C@@H](C)C(=O)N[C@@H](Cc2ccc(C(=O)O)cc2)C(=O)N[C@@H](Cc2c[nH]c3ccccc23)C(=O)N[C@@H](C)C(=O)N[C@@H](CCC(N)=O)C(=O)N[C@@H](CC2CCC2)C(=O)N1)C(=O)N[C@H](C)C(N)=O [compound 267] (Ac-LTF[R8]A[Phe(4-COOH)]WAQ[Cba][S5]AAI[dA]-NH2; staple 4-11)
- IC50 (MDM2): 10 to 100 nM
- Ki (MDM2): < 10 nM
- IC50 (MDMX): 10 to 100 nM
- Ki (MDMX): < 10 nM

SMILES: CCCC[C@H](NC(=O)[C@H](Cc1c[nH]c2ccccc12)NC(=O)[C@H](C)NC(=O)[C@]1(C)CCCC=CCCCCCC[C@@](C)(NC(=O)[C@H](Cc2ccccc2)NC(=O)[C@@H](NC(=O)[C@H](CCC(=O)O)NC(C)=O)[C@@H](C)O)C(=O)N[C@@H](C)C(=O)N[C@@H](Cc2ccc(O)cc2)C(=O)N[C@@H](Cc2c[nH]c3ccccc23)C(=O)N[C@@H](C)C(=O)N[C@@H](CCC(N)=O)C(=O)N[C@@H](CC2CCC2)C(=O)N1)C(=O)N[C@H](C)C(N)=O [compound 270] (Ac-ETF[R8]AYWAQ[Cba][S5]AW[Nle][dA]-NH2; staple 4-11)
- IC50 (MDM2): < 10 nM
- Ki (MDM2): < 10 nM
- IC50 (MDMX): 10 to 100 nM
- Ki (MDMX): 10 to 100 nM

SMILES: CCCC[C@H](NC(=O)[C@H](Cc1c[nH]c2ccccc12)NC(=O)[C@H](C)NC(=O)[C@]1(C)CCCC=CCCCCCC[C@@](C)(NC(=O)[C@H](Cc2ccccc2)NC(=O)[C@@H](NC(=O)[C@H](CC(C)C)NC(C)=O)[C@@H](C)O)C(=O)N[C@@H](CCC(=O)O)C(=O)N[C@@H](Cc2ccc(O)cc2)C(=O)N[C@@H](Cc2c[nH]c3ccccc23)C(=O)N[C@@H](C)C(=O)N[C@@H](CCC(N)=O)C(=O)N[C@@H](CC2CCC2)C(=O)N1)C(=O)N[C@H](C)C(N)=O [compound 271] (Ac-LTF[R8]EYWAQ[Cba][S5]AW[Nle][dA]-NH2; staple 4-11)
- IC50 (MDM2): < 10 nM
- Ki (MDM2): < 10 nM
- IC50 (MDMX): 10 to 100 nM
- Ki (MDMX): < 10 nM

SMILES: CCCC[C@H](NC(=O)[C@H](Cc1c[nH]c2ccccc12)NC(=O)[C@H](C)NC(=O)[C@]1(C)CCCC=CCCCCCC[C@@](C)(NC(=O)[C@H](Cc2ccccc2)NC(=O)[C@@H](NC(=O)[C@H](CCC(=O)O)NC(C)=O)[C@@H](C)O)C(=O)N[C@@H](CCC(=O)O)C(=O)N[C@@H](Cc2ccc(O)cc2)C(=O)N[C@@H](Cc2c[nH]c3ccccc23)C(=O)N[C@@H](C)C(=O)N[C@@H](CCC(N)=O)C(=O)N[C@@H](CC2CCC2)C(=O)N1)C(=O)N[C@H](C)C(N)=O [compound 272] (Ac-ETF[R8]EYWAQ[Cba][S5]AW[Nle][dA]-NH2; staple 4-11)
- IC50 (MDM2): < 10 nM
- Ki (MDM2): < 10 nM
- IC50 (MDMX): 10 to 100 nM
- Ki (MDMX): < 10 nM
